Test results reported in US20050008896A1, “Luminous organic compound and manufacturing method” (Orient Chemical Ind., Ltd., priority 2003, published 2005).
Where two headings read alike, the source gives them in different places.

Tests used:
[1] = Fluorescence (photoluminescence) intensity in ethanol, fluorescence spectrophotometer RF-5300PC; assay type: physicochemical; conditions: for Fluorescence Intensity / center of Luminous Wave: 25 mg of compound in 100 ml of ethanol; for Relative Value of Fluorescence Intensity, Relative Value (2) (Related to Metal Complex Intermediate 3): metal complex intermediate 3 regarded as 1.00
Description: Fluorescence intensity of each obtained compound was measured in order to evaluate fluorescence property.
A method of the evaluation is as follows. 25 mg of each compound was dissolved in 100 ml of ethanol respectively. The fluorescence intensity, photoluminescence intensity, was measured by a fluorescence spectrophotometer RF-5300PC that is available from Shimadzu Corporation. The measured results of the luminous organic compounds 1 to 9 and 11, the comparative compounds 1 to 3 and the metal complex intermediate 1 to 3 are indicated in Table 3. […] The relative value (2) of the fluorescence intensity indicates the value related to the fluorescence intensity of the metal complex intermediate 3 regarded as 1.00.

[2] = stood at room temperature overnight
Description: A method of measurement of the solubility is as follows. After the prescribed amount of the compound was added to each solvent, it was heated by water bath and irradiated supersonic wave for 1 hour. It was stood at room temperature overnight, and filtrated. Obtained residue was dried. Amount of insoluble residue was weighed, and solubility (w/v %) was determined.

[3] = comparative compound 3 regarded as 1.00

C[N+](C)(C)CC[N+](C)(C)C.O=C(C=C([O-])C(F)(F)F)c1ccc2ccccc2c1.O=C(C=C([O-])C(F)(F)F)c1ccc2ccccc2c1.O=C(C=C([O-])C(F)(F)F)c1ccc2ccccc2c1.O=C(C=C([O-])C(F)(F)F)c1ccc2ccccc2c1.O=C(C=C([O-])C(F)(F)F)c1ccc2ccccc2c1.O=C(C=C([O-])C(F)(F)F)c1ccc2ccccc2c1.O=C(C=C([O-])C(F)(F)F)c1ccc2ccccc2c1.O=C(C=C([O-])C(F)(F)F)c1ccc2ccccc2c1.[Eu+3].[Eu+3] [Luminous Organic Compound 1]
Relative Value of Fluorescence Intensity, Relative Value (1) (Related to Comparative Compound 3) [1]: 1.31
Fluorescence Intensity [1]: 662
center of Luminous Wave [1]: (613 nm)
Relative Value of Fluorescence Intensity, Relative Value (2) (Related to Metal Complex Intermediate 3) [1]: 1.34
Solubility, Ethanol [2]: 0.20 w/v %
Solubility, Ethyl Acetate [2]: over 10.0 w/v %
Solubility, Methyl Ethyl Ketone [2]: over 10.0 w/v %
Solubility, Toluene [2]: 0.52 w/v %
Solubility, Xylene [2]: 0.10 w/v %

C[N+](C)(C)CCCC[N+](C)(C)C.O=C(C=C([O-])C(F)(F)F)c1ccc2ccccc2c1.O=C(C=C([O-])C(F)(F)F)c1ccc2ccccc2c1.O=C(C=C([O-])C(F)(F)F)c1ccc2ccccc2c1.O=C(C=C([O-])C(F)(F)F)c1ccc2ccccc2c1.O=C(C=C([O-])C(F)(F)F)c1ccc2ccccc2c1.O=C(C=C([O-])C(F)(F)F)c1ccc2ccccc2c1.O=C(C=C([O-])C(F)(F)F)c1ccc2ccccc2c1.O=C(C=C([O-])C(F)(F)F)c1ccc2ccccc2c1.[Eu+3].[Eu+3] [Luminous Organic Compound 2]
Relative Value of Fluorescence Intensity, Relative Value (1) (Related to Comparative Compound 3) [1]: 1.48
Fluorescence Intensity [1]: 744
center of Luminous Wave [1]: (613 nm)
Relative Value of Fluorescence Intensity, Relative Value (2) (Related to Metal Complex Intermediate 3) [1]: 1.50
Solubility, Ethanol [2]: 0.19 w/v %
Solubility, Ethyl Acetate [2]: 1.54 w/v %
Solubility, Methyl Ethyl Ketone [2]: over 10.0 w/v %
Solubility, Toluene [2]: 0.24 w/v %
Solubility, Xylene [2]: 0.10 w/v %

C[N+](C)(C)CCCCCC[N+](C)(C)C.O=C(C=C([O-])C(F)(F)F)c1ccc2ccccc2c1.O=C(C=C([O-])C(F)(F)F)c1ccc2ccccc2c1.O=C(C=C([O-])C(F)(F)F)c1ccc2ccccc2c1.O=C(C=C([O-])C(F)(F)F)c1ccc2ccccc2c1.O=C(C=C([O-])C(F)(F)F)c1ccc2ccccc2c1.O=C(C=C([O-])C(F)(F)F)c1ccc2ccccc2c1.O=C(C=C([O-])C(F)(F)F)c1ccc2ccccc2c1.O=C(C=C([O-])C(F)(F)F)c1ccc2ccccc2c1.[Eu+3].[Eu+3] [Luminous Organic Compound 3]
Relative Value of Fluorescence Intensity, Relative Value (1) (Related to Comparative Compound 3) [1]: 1.63
Fluorescence Intensity [1]: 822
center of Luminous Wave [1]: (613 nm)
Relative Value of Fluorescence Intensity, Relative Value (2) (Related to Metal Complex Intermediate 3) [1]: 1.66
Solubility, Ethanol [2]: 0.14 w/v %
Solubility, Ethyl Acetate [2]: 9.01 w/v %
Solubility, Methyl Ethyl Ketone [2]: over 10.0 w/v %
Solubility, Toluene [2]: 0.31 w/v %
Solubility, Xylene [2]: 0.18 w/v %

C[N+](C)(C)c1ccc([N+](C)(C)C)cc1.O=C(C=C([O-])C(F)(F)F)c1ccc2ccccc2c1.O=C(C=C([O-])C(F)(F)F)c1ccc2ccccc2c1.O=C(C=C([O-])C(F)(F)F)c1ccc2ccccc2c1.O=C(C=C([O-])C(F)(F)F)c1ccc2ccccc2c1.O=C(C=C([O-])C(F)(F)F)c1ccc2ccccc2c1.O=C(C=C([O-])C(F)(F)F)c1ccc2ccccc2c1.O=C(C=C([O-])C(F)(F)F)c1ccc2ccccc2c1.O=C(C=C([O-])C(F)(F)F)c1ccc2ccccc2c1.[Eu+3].[Eu+3] [Luminous Organic Compound 4]
Relative Value of Fluorescence Intensity, Relative Value (1) (Related to Comparative Compound 3) [1]: 1.52
Fluorescence Intensity [1]: 766
center of Luminous Wave [1]: (613 nm)
Relative Value of Fluorescence Intensity, Relative Value (2) (Related to Metal Complex Intermediate 3) [1]: 1.55
Solubility, Ethanol [2]: 0.08 w/v %
Solubility, Ethyl Acetate [2]: over 10.0 w/v %
Solubility, Methyl Ethyl Ketone [2]: over 10.0 w/v %
Solubility, Toluene [2]: 0.23 w/v %
Solubility, Xylene [2]: 0.22 w/v %

C[N+](C)(C)c1ccc(-c2ccc([N+](C)(C)C)cc2)cc1.O=C(C=C([O-])C(F)(F)F)c1ccc2ccccc2c1.O=C(C=C([O-])C(F)(F)F)c1ccc2ccccc2c1.O=C(C=C([O-])C(F)(F)F)c1ccc2ccccc2c1.O=C(C=C([O-])C(F)(F)F)c1ccc2ccccc2c1.O=C(C=C([O-])C(F)(F)F)c1ccc2ccccc2c1.O=C(C=C([O-])C(F)(F)F)c1ccc2ccccc2c1.O=C(C=C([O-])C(F)(F)F)c1ccc2ccccc2c1.O=C(C=C([O-])C(F)(F)F)c1ccc2ccccc2c1.[Eu+3].[Eu+3] [Luminous Organic Compound 5]
Relative Value of Fluorescence Intensity, Relative Value (1) (Related to Comparative Compound 3) [1]: 1.28
Fluorescence Intensity [1]: 644
Relative Value of Fluorescence Intensity, Relative Value (2) (Related to Metal Complex Intermediate 3) [1]: 1.30
Solubility, Ethanol [2]: 0.37 w/v %
Solubility, Ethyl Acetate [2]: 3.46 w/v %
Solubility, Methyl Ethyl Ketone [2]: over 10.0 w/v %
Solubility, Toluene [2]: 0.30 w/v %
Solubility, Xylene [2]: 0.52 w/v %

C[N+](C)(C)CCCC[N+](C)(C)C.O=C(C=C([O-])C(F)(F)F)c1ccc2ccccc2c1.O=C(C=C([O-])C(F)(F)F)c1ccc2ccccc2c1.O=C(C=C([O-])C(F)(F)F)c1ccc2ccccc2c1.O=C(C=C([O-])C(F)(F)F)c1ccc2ccccc2c1.O=C(C=C([O-])C(F)(F)F)c1ccc2ccccc2c1.O=C(C=C([O-])C(F)(F)F)c1ccc2ccccc2c1.O=C(C=C([O-])C(F)(F)F)c1ccc2ccccc2c1.O=C(C=C([O-])C(F)(F)F)c1ccc2ccccc2c1.[Tb+3].[Tb+3] [Luminous Organic Compound 10]
Solubility, Ethanol [2]: 0.062 w/v %
Solubility, Ethyl Acetate [2]: 1.21 w/v %
Solubility, Methyl Ethyl Ketone [2]: over 10.0 w/v %
Solubility, Toluene [2]: 0.43 w/v %
Solubility, Xylene [2]: 0.32 w/v %

O=C(C=C([O-])C(F)(F)F)c1ccc2ccccc2c1.O=C(C=C([O-])C(F)(F)F)c1ccc2ccccc2c1.O=C(C=C([O-])C(F)(F)F)c1ccc2ccccc2c1.[Eu+3] [Metal Complex Intermediate 1]
Fluorescence Intensity [1]: 665
center of Luminous Wave [1]: (613 nm)
Relative Value of Fluorescence Intensity, Relative Value (1) (Related to Comparative Compound 3) [1, 3]: 1.32
Relative Value of Fluorescence Intensity, Relative Value (2) (Related to Metal Complex Intermediate 3) [1]: 1.35

O=C(C=C([O-])C(F)(F)F)c1cccs1.O=C(C=C([O-])C(F)(F)F)c1cccs1.O=C(C=C([O-])C(F)(F)F)c1cccs1.[Eu+3] [Metal Complex Intermediate 2]
Fluorescence Intensity [1]: 566
center of Luminous Wave [1]: (613 nm)
Relative Value of Fluorescence Intensity, Relative Value (1) (Related to Comparative Compound 3) [1, 3]: 1.13
Relative Value of Fluorescence Intensity, Relative Value (2) (Related to Metal Complex Intermediate 3) [1]: 1.15

O=C(C=C([O-])C(F)(F)F)c1ccccc1.O=C(C=C([O-])C(F)(F)F)c1ccccc1.O=C(C=C([O-])C(F)(F)F)c1ccccc1.[Eu+3] [Metal Complex Intermediate 3]
Fluorescence Intensity [1]: 493
center of Luminous Wave [1]: (613 nm)
Relative Value of Fluorescence Intensity, Relative Value (1) (Related to Comparative Compound 3) [1, 3]: 0.98
Relative Value of Fluorescence Intensity, Relative Value (2) (Related to Metal Complex Intermediate 3) [1]: (1.00)
